{"source": "patent US20240050576A1", "about": "“METHODS AND COMPOUNDS FOR THE TREATMENT OF GENETIC DISEASE” (Design Therapeutics, Inc., priority 2020, published 2024)"}
{"system": "human FXN", "experiment": "FXN mRNA expression by qRT-PCR in GM15850 cells after 48 hr compound treatment", "assay_type": "cell-based", "conditions": "GM15850 cells, 48 hr incubation, hFXN normalized to hGAPDH; read-out: EC50 WT (nM, 48 hr)", "experimental": "(§1) Cell culture: Cells were cultured in RPMI1640 medium+15% FBS. Cells were maintained at a density between 2e5/mL and 1e6/mL. Cells were centrifuged, resuspended in fresh medium, counted and plated at 150,000 cells per well in 100 uL in a non-coated, flat bottom tissue culture plate.\n(§2) Compound treatment: 10 mM stock solution of FA GeneTAC was diluted 1:10 in DMSO followed by a 1:100 dilution in growth medium. […] Compound was then diluted at a 1:3 ratio into growth medium containing 0.01% DMSO. 5-point, 3-fold dose response curve was generated. 11 μL of 10× compound was added to wells containing 100 μL cell suspension of GM15850. 11 μL growth medium containing 0.01% DMSO was added to all wells not treated with FA GeneTAC. Cells were allowed to incubate for 48 hrs prior to cell lysis using guanidine isothiocyanate solution.\n(§3) RNA isolation: Total RNA was isolated and purified in 384-well column filter plates using chaotropic salt.\n(§4) qRT-PCR: qRT-PCR reactions were assembled using AgPath-ID reagents (Thermo Fisher) using 6 uL mastermix and 4 μL RNA. qRT-PCR TaqMan primer probe sets against human FXN (Assay ID Hs01075496_m1) and human GAPDH (Assay ID Hs00266705_g1) were used to measure the intended targets. qRT-PCR was run on the ThermoFisher QuantStudio 6 PRO instrument using the manufacturer's recommended cycling conditions.\n(§5) Data analysis: qPCR data was analyzed using Thermo Fisher Design and Analysis software. Data was exported to Excel and hFXN expression was normalized to hGAPDH expression.", "units": {"EC50": "nM"}}
{"smiles": "CC(=O)N1c2ccc(-c3ccc(C(=O)NCCOCCOCCOCCOCCOCCOCCOCCOCCNC(=O)c4nc(NC(=O)CCNC(=O)c5cc(NC(=O)c6nc(NC(=O)CCNC(=O)c7cc(NC(=O)c8nc(NC(=O)CCNC(=O)[C@H](CCCNC(=N)N)NC(=O)[C@@H](N)CCCNC(=N)N)cn8C)cn7C)cn6C)cn5C)cn4C)cc3)cc2[C@H](Nc2ccc(Cl)cc2)C[C@@H]1C", "note": "[Compound 90]", "EC50": "100 to 500"}
{"system": "human FXN", "experiment": "FXN mRNA expression by qRT-PCR in GM15850 cells after 48 hr compound treatment", "assay_type": "cell-based", "conditions": "Homo sapiens, GM15850, 48 h, read-out: EC50 WT (nM, 48 hr)", "experimental": "as §1, §2, §3, §4, §5", "units": {"EC50": "nM"}}
{"smiles": "Cc1sc2c(c1C)C(c1ccc(Cl)cc1)=N[C@@H](CC(=O)Nc1ccc(OCCOCCOCCNC(=O)[C@H](CCCNC(=N)N)NC(=O)[C@H](CCCNC(=N)N)NC(=O)CCOCCOCCOCCNC(=O)CCNC(=O)c3nc(NC(=O)CCNC(=O)c4cc(NC(=O)c5nc(NC(=O)CCNC(=O)c6cc(NC(=O)c7nccn7C)cn6C)cn5C)cn4C)cn3C)cc1)c1nnc(C)n1-2", "note": "[Compound 99]", "EC50": "< 100"}
{"system": "human FXN", "experiment": "FXN mRNA expression by qRT-PCR in GM15850 cells after 48 hr compound treatment", "assay_type": "cell-based", "conditions": "Homo sapiens; GM15850 cells, 48 hr incubation, hFXN normalized to hGAPDH; read-out: EC50 WT (nM, 48 hr)", "experimental": "as §1, §2, §3, §4, §5", "units": {"EC50": "nM"}}
{"smiles": "Cc1sc2c(c1C)C(c1ccc(Cl)cc1)=N[C@@H](CC(=O)Nc1cccc(OCCOCCOCCOCCOCCOCCOCCOCCOCCNC(=O)CCNC(=O)c3nc(NC(=O)CCNC(=O)c4cc(NC(=O)c5nc(NC(=O)CCNC(=O)c6cc(NC(=O)c7nccn7C)cn6C)cn5C)cn4C)cn3C)c1)c1nnc(C)n1-2", "note": "[Compound 65]", "EC50": "100 to 500"}
{"smiles": "CC(=O)N1c2ccc(-c3ccc(C(=O)NCCOCCOCCOCCOCCOCCOCCOCCOCCNC(=O)c4cc(NC(=O)c5nc(NC(=O)CCNC(=O)c6cc(NC(=O)c7nc(NC(=O)CCNC(=O)COCCOCCOCCN8CCN(CC9CCNCC9)CC8)cn7C)cn6C)cn5C)cn4C)cc3)cc2[C@H](Nc2ccc(Cl)cc2)C[C@@H]1C", "note": "[Compound 73]", "EC50": "> 500"}
{"smiles": "CC(=O)N1c2ccc(-c3ccc(C(=O)NCCOCCOCCOCCOCCOCCOCCOCCOCCNC(=O)c4cc(NC(=O)c5nc(NC(=O)CCNC(=O)c6cc(NC(=O)c7nc(NC(=O)CCNC(=O)[C@H](CCCNC(=N)N)NC(=O)[C@@H](N)CCCNC(=N)N)cn7C)cn6C)cn5C)cn4C)cc3)cc2[C@H](Nc2ccc(Cl)cc2)C[C@@H]1C", "note": "[Compound 75]", "EC50": "> 500"}
{"smiles": "CC(=O)N1c2ccc(-c3ccc(C(=O)NCCOCCOCCOCCOCCOCCOCCOCCOCCNC(=O)c4nc(NC(=O)CCNC(=O)c5cc(NC(=O)c6nc(NC(=O)CCNC(=O)c7cc(NC(=O)c8nc(NC(=O)CCNC(=N)N)cn8C)cn7C)cn6C)cn5C)cn4C)cc3)cc2[C@H](Nc2ccc(Cl)cc2)C[C@@H]1C", "note": "[Compound 86, N-[5-([2-[(2-[[26-([4-[(2S,4R)-1-acetyl-4-[(4-chlorophenyl)amino]-2-methyl-3,4-dihydro-2H-quinolin-6-yl]phenyl]formamido)-3,6,9,12,15,18,21,24-octaoxahexacosan-1-yl]carbamoyl]-1-methylimidazol-4-yl)carbamoyl]ethyl]carbamoyl)-1-methylpyrrol-3-yl]-4-[3-([4-[4-(3-carbamimidamidopropanamido)-1-methylimidazole-2-amido]-1-methylpyrrol-2-yl]formamido)propanamido]-1-methylimidazole-2-carboxamide]", "EC50": "> 500"}
{"smiles": "CC(=O)N1c2ccc(-c3ccc(C(=O)NCCOCCOCCOCCOCCOCCOCCOCCOCCNC(=O)c4nc(NC(=O)CCNC(=O)c5cc(NC(=O)c6nc(NC(=O)CCNC(=O)c7cc(NC(=O)c8nc(NC(=O)CCNC(=O)COCCOCCOCCNC(=N)N)cn8C)cn7C)cn6C)cn5C)cn4C)cc3)cc2[C@H](Nc2ccc(Cl)cc2)C[C@@H]1C", "note": "[Compound 87]", "EC50": "100 to 500"}
{"smiles": "CC(=O)N1c2ccc(-c3ccc(C(=O)NCCOCCOCCOCCOCCOCCOCCOCCOCCNC(=O)c4nc(NC(=O)CCNC(=O)c5cc(NC(=O)c6nc(NC(=O)CCNC(=O)c7cc(NC(=O)c8nc(NC(=O)CCNC(=O)COCCOCCOCCN9CCN(CC%10CCNCC%10)CC9)cn8C)cn7C)cn6C)cn5C)cn4C)cc3)cc2[C@H](Nc2ccc(Cl)cc2)C[C@@H]1C", "note": "[Compound 88]", "EC50": "> 500"}
{"smiles": "CC(=O)N1c2ccc(-c3ccc(C(=O)NCCOCCOCCOCCOCCOCCOCCOCCOCCNC(=O)c4nc(NC(=O)CCNC(=O)c5cc(NC(=O)c6nc(NC(=O)CCNC(=O)c7cc(NC(=O)c8nc(NC(=O)CCNC(=O)COCCOCCOCCOCCOCCOCCOCCOCCOCCOCCOCCOCCOCCOCCOCCN)cn8C)cn7C)cn6C)cn5C)cn4C)cc3)cc2[C@H](Nc2ccc(Cl)cc2)C[C@@H]1C", "note": "[Compound 89]", "EC50": "> 500"}
{"smiles": "COc1ccc2c(c1)C(c1ccc(Cl)cc1)=N[C@@H](CC(=O)Nc1ccc(OCCOCCOCCNC(=O)[C@H](CCCNC(=N)N)NC(=O)[C@H](CCCNC(=N)N)NC(=O)CCOCCOCCOCCNC(=O)CCNC(=O)c3nc(NC(=O)CCNC(=O)c4cc(NC(=O)c5nc(NC(=O)CCNC(=O)c6cc(NC(=O)c7nccn7C)cn6C)cn5C)cn4C)cn3C)cc1)c1nnc(C)n1-2", "note": "[Compound 100]", "EC50": "100 to 500"}
{"smiles": "Cc1sc2c(c1C)C(c1ccc(Cl)cc1)=N[C@@H](CC(=O)NC1CCN(CCOCCOCCOCCOCCOCCC(=O)NCCCN(CCCNC(=O)CCNC(=O)c3nc(NC(=O)CCNC(=O)c4cc(NC(=O)c5nc(NC(=O)CCNC(=O)c6cc(NC(=O)c7nccn7C)cn6C)cn5C)cn4C)cn3C)CC(F)(F)F)CC1)c1nnc(C)n1-2", "note": "[Compound 101]", "EC50": "100 to 500"}
{"smiles": "Cc1sc2c(c1C)C(c1ccc(Cl)cc1)=N[C@@H](CC(=O)Nc1ccc(OCCOCCOCCOCCOCCOCCOCCOCCOCCNC(=O)CCNC(=O)c3nc(NC(=O)CCNC(=O)c4cc(NC(=O)c5nc(NC(=O)CCNC(=O)c6cc(NC(=O)c7nccn7C)cn6C)cn5C)cn4C)cn3C)nc1)c1nnc(C)n1-2", "note": "[Compound 102]", "EC50": "< 100"}
{"smiles": "Cc1sc2c(c1C)C(c1ccc(Cl)cc1)=N[C@@H](CC(=O)Nc1cncc(OCCOCCOCCOCCOCCOCCOCCOCCOCCNC(=O)CCNC(=O)c3nc(NC(=O)CCNC(=O)c4cc(NC(=O)c5nc(NC(=O)CCNC(=O)c6cc(NC(=O)c7nccn7C)cn6C)cn5C)cn4C)cn3C)c1)c1nnc(C)n1-2", "note": "[Compound 103]", "EC50": "< 100"}
